{"source": "patent US8802700B2", "about": "(Vertex Pharmaceuticals Incorporated, priority 2010, dated 2014)", "data": [{"molecular_target": "T1, ΔF508-CFTR (Homo sapiens, UniProt P13569, DEL508-508)", "T1 construct": "expressed in transfected cells", "T1 sequence (P13569 with tags, fused parts or gaps DEL508-508)": "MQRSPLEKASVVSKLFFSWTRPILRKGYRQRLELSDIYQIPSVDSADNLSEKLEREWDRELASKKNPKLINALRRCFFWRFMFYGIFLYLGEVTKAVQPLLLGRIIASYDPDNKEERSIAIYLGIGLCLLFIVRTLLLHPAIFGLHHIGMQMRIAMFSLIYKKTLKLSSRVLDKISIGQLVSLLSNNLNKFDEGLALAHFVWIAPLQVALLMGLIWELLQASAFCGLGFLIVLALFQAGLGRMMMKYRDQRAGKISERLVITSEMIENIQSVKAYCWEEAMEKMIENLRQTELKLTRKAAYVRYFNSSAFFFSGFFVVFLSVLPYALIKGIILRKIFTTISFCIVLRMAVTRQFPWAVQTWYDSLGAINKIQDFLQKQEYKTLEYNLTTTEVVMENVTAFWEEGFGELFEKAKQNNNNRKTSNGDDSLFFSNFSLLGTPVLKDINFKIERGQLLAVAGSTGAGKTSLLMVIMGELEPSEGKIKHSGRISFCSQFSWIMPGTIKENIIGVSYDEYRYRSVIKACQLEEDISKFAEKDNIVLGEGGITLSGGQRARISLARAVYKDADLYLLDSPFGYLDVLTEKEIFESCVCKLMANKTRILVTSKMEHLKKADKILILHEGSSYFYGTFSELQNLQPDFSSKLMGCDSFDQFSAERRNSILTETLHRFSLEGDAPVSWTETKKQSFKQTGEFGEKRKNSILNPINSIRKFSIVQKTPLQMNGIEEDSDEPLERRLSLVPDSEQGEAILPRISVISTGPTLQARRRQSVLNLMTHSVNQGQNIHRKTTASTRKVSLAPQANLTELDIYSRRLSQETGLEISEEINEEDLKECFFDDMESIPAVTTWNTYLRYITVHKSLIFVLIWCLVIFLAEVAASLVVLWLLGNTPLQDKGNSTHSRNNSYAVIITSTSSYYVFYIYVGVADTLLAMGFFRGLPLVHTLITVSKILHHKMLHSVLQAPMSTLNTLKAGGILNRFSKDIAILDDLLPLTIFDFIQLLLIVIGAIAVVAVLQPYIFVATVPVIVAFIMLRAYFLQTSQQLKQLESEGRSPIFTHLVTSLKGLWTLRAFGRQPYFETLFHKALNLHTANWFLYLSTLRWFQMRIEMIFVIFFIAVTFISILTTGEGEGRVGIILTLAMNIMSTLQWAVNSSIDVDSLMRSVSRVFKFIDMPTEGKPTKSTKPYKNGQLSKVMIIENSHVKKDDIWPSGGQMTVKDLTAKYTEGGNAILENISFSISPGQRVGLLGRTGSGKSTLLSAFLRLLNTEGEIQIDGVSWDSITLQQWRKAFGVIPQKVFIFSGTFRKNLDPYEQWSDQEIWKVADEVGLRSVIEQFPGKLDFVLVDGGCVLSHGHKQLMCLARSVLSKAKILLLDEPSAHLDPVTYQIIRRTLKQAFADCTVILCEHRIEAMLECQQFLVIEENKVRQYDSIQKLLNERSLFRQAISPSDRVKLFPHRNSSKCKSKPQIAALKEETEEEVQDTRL", "assay": "Membrane potential optical assay (FRET voltage-sensor dyes, VIPR), identification of potentiator compounds", "format": "cell-based", "conditions": "Table 3; assay not given; read-out: % Activity (% Efficacy, relative efficacy)", "description": "The optical membrane potential assay utilized voltage-sensitive FRET sensors described by Gonzalez and Tsien (See Gonzalez, J. E. and R. Y. Tsien (1995) “Voltage sensing by fluorescence resonance energy transfer in single cells” Biophys J 69(4): 1272-80, and Gonzalez, J. E. and R. Y. Tsien (1997) “Improved indicators of cell membrane potential that use fluorescence resonance energy transfer” Chem Biol 4(4): 269-77) in combination with instrumentation for measuring fluorescence changes such as the Voltage/Ion Probe Reader (VIPR) (See […]. Oades, et al. (1999) “Cell-based assays and instrumentation for screening ion-channel targets” Drug Discov Today 4(9): 431-439). These voltage sensitive assays are based on the change in fluorescence resonant energy transfer (FRET) between the membrane-soluble, voltage-sensitive dye, DiSBAC2(3), and a fluorescent phospholipid, CC2-DMPE, which is attached to the outer leaflet of the plasma membrane and acts as a FRET donor. Changes in membrane potential (Vm) cause the negatively charged DiSBAC2(3) to redistribute across the plasma membrane and the amount of energy transfer from CC2-DMPE changes accordingly. The changes in fluorescence emission were monitored using VIPRTM II, which is an integrated liquid handler and fluorescent detector designed to conduct cell-based screens in 96- or 384-well microtiter plates. To identify potentiators of ΔF508-CFTR, a double-addition HTS assay format was developed. During the first addition, a Cl^--free medium with or without test compound was added to each well. […] (in mM) NaCl 160, KCl 4.5, CaCl2 2, MgCl2 1, HEPES 10, pH 7.4 with NaOH. • Chloride-free bath solution: Chloride salts in Bath Solution #1 are substituted with gluconate salts. • CC2-DMPE: Prepared as a 10 mM stock solution in DMSO and stored at -20° C. • DiSBAC2(3): Prepared as a 10 mM stock in DMSO and stored at -20° C. NIH3T3 mouse fibroblasts stably expressing ΔF508-CFTR are used for optical measurements of membrane potential. […] For all optical assays, the cells were seeded at 30,000/well in 384-well matrigel-coated plates and cultured for 2 hrs at 37° C. before culturing at 27° C. for 24 hrs. for the potentiator assay.", "units": {"Emax": "%"}, "values": [{"molecule": "COc1ccccc1NC(=O)c1c[nH]c2ccccc2c1=O", "note": "[Compound 80, N-(2-methoxyphenyl)-4-oxo-1H-quinoline-3-carboxamide]", "Emax": "25 to 100"}, {"molecule": "CCC(=O)Nc1cccc(NC(=O)c2c[nH]c3ccccc3c2=O)c1", "note": "[Compound 81, 4-oxo-N-(3-propionylaminophenyl)-1H-quinoline-3-carboxamide]", "Emax": "< 25"}, {"molecule": "CCN(CC)c1ccc(NC(=O)c2c[nH]c3ccccc3c2=O)c(C)c1", "note": "[Compound 82, N-(4-diethylamino-2-methyl-phenyl)-4-oxo-1H-quinoline-3-carboxamide]", "Emax": "25 to 100"}, {"molecule": "N#Cc1cccc(-c2ccccc2NC(=O)c2c[nH]c3ccccc3c2=O)c1", "note": "[Compound 83, N-[2-(3-cyanophenyl)phenyl]-4-oxo-1H-quinoline-3-carboxamide]", "Emax": "25 to 100"}, {"molecule": "Cc1ccnc(NC(=O)c2c[nH]c3ccccc3c2=O)c1", "note": "[Compound 84, N-(4-methyl-2-pyridyl)-4-oxo-1H-quinoline-3-carboxamide]", "Emax": "< 25"}, {"molecule": "O=C(Nc1ccccc1-c1ccc(Cl)c(Cl)c1)c1c[nH]c2ccccc2c1=O", "note": "[Compound 85, N-[2-(3,4-dichlorophenyl)phenyl]-4-oxo-1H-quinoline-3-carboxamide]", "Emax": "25 to 100"}, {"molecule": "NCc1ccccc1-c1ccc(NC(=O)c2c[nH]c3ccccc3c2=O)cc1", "note": "[Compound 86, N-[4-[2-(aminomethyl)phenyl]phenyl]-4-oxo-1H-quinoline-3-carboxamide]", "Emax": "25 to 100"}, {"molecule": "O=C(Nc1cccc(Oc2ccccc2)c1)c1c[nH]c2ccccc2c1=O", "note": "[Compound 87, 4-oxo-N-(3-phenoxyphenyl)-1H-quinoline-3-carboxamide]", "Emax": "25 to 100"}, {"molecule": "Cc1ccc(C#N)c(NC(=O)c2c[nH]c3ccccc3c2=O)c1", "note": "[Compound 89, N-(2-cyano-5-methyl-phenyl)-4-oxo-1H-quinoline-3-carboxamide]", "Emax": "< 25"}, {"molecule": "CC(C)(C)c1ccccc1NC(=O)c1c[nH]c2ccccc2c1=O", "note": "[Compound 90, 4-oxo-N-(2-tert-butylphenyl)-1H-quinoline-3-carboxamide]", "Emax": "25 to 100"}, {"molecule": "CCc1ccc(Cl)c(CC)c1NC(=O)c1c[nH]c2ccccc2c1=O", "note": "[Compound 91, N-(3-chloro-2,6-diethyl-phenyl)-4-oxo-1H-quinoline-3-carboxamide]", "Emax": "25 to 100"}, {"molecule": "CC1(c2cc(F)c(NC(=O)c3c[nH]c4ccccc4c3=O)cc2O)CCCCC1", "note": "[Compound 92, N-[2-fluoro-5-hydroxy-4-(1-methylcyclohexyl)-phenyl]-4-oxo-1H-quinoline-3-carboxamide]", "Emax": "25 to 100"}, {"molecule": "N#Cc1ccc(-c2ccccc2NC(=O)c2c[nH]c3ccccc3c2=O)s1", "note": "[Compound 93, N-[2-(5-cyano-2-thienyl)phenyl]-4-oxo-1H-quinoline-3-carboxamide]", "Emax": "25 to 100"}, {"molecule": "Cc1ccc(N)cc1NC(=O)c1c[nH]c2ccccc2c1=O", "note": "[Compound 94, N-(5-Amino-2-methyl-phenyl)-4-oxo-1H-quinoline-3-carboxamide]", "Emax": "25 to 100"}, {"molecule": "N#Cc1ccccc1NC(=O)c1c[nH]c2ccccc2c1=O", "note": "[Compound 95, N-(2-cyanophenyl)-4-oxo-1H-quinoline-3-carboxamide]", "Emax": "25 to 100"}, {"molecule": "N#CCc1c[nH]c2cc(NC(=O)c3c[nH]c4ccccc4c3=O)ccc12", "note": "[Compound 96, N-[3-(cyanomethyl)-1H-indol-6-yl]-4-oxo-1H-quinoline-3-carboxamide]", "Emax": "25 to 100"}, {"molecule": "COc1ncc(-c2ccccc2NC(=O)c2c[nH]c3ccccc3c2=O)c(OC)n1", "note": "[Compound 97, N-[2-(2,4-dimethoxypyrimidin-5-yl)phenyl]-4-oxo-1H-quinoline-3-carboxamide]", "Emax": "25 to 100"}, {"molecule": "CCCc1ccc(N(C)C)cc1NC(=O)c1c[nH]c2ccccc2c1=O", "note": "[Compound 98, N-(5-dimethylamino-2-propyl-phenyl)-4-oxo-1H-quinoline-3-carboxamide]", "Emax": "25 to 100"}, {"molecule": "CCCCCc1ccc(NC(=O)c2c[nH]c3ccccc3c2=O)cc1", "note": "[Compound 99, 4-oxo-N-(4-pentylphenyl)-1H-quinoline-3-carboxamide]", "Emax": "25 to 100"}, {"molecule": "O=C(Nc1cccc2[nH]ccc12)c1c[nH]c2ccccc2c1=O", "note": "[Compound 100, N-(1H-indol-4-yl)-4-oxo-1H-quinoline-3-carboxamide]", "Emax": "< 25"}]}]}
